Laboratory results from article PMC9738062, “Selectively Halogenated Flavonolignans—Preparation and Antibacterial Activity” (International Journal of Molecular Sciences, 2022).
Entries after “also recorded” stand apart in the source; their conditions may differ.

Experiments:
[1] = tested on: P. aeruginosa (CCM, 3955); assay: Inhibition of biofilm formation (surface colonization); assay type: cell-based; settings: Pseudomonas aeruginosa; highest tested concentration 100 µM
Protocol: Biofilm formation is a fully organized, multistep process in which bacteria are constantly communicating with each other.
The activity of derivatives on biofilms was tested with S. aureus (ATCC, 25923) and P. aeruginosa (CCM, 3955), according to the previously described method. The highest tested concentration of derivatives was 100 µM. The activity was evaluated using an IC50 comparison between the parent compound and its derivative.

[2] = tested on: multidrug-resistant P. aeruginosa; assay: Sensitization of antibiotic-resistant bacteria (compound plus breakpoint antibiotic concentration); assay type: cell-based, Pseudomonas aeruginosa; settings: for Effect on viability in combination with colistin: colistin 2 mg/L; for Effect on viability in combination with colistin / Effect on viability in combination with imipenem: flavonoid 40 µM, 24 h; for Effect on viability in combination with imipenem: imipenem 4 mg/L; for Effect on viability in combination with imipenem: key: -: no effect (100% viability) was observed up to the highest flavonolignan concentration tested (>40 µM); reversion of resistance: the compound reversed the resistant phenotype to a sensitive one
Protocol: (§1) Clinically relevant antibiotics were selected for sensitization testing according to the European Committee on Antimicrobial Susceptibility Testing (EUCAST). Neither colistin and imipenem at breakpoint concentrations (according to EUCAST, […] and […]) affected the growth of the multidrug-resistant clinical strain of P. aeruginosa. Similarly, neither chloramphenicol and gentamicin at breakpoint concentrations ([…], respectively) affected the multidrug-resistant clinical strain of S. aureus. Flavonoids and their derivatives (1–40 µM) were used in combination therapy, along with the breakpoint concentration of antibiotics. After co-incubation, the minimum inhibitory concentration of flavonoids inhibiting the visible growth of bacteria was determined (Table 2).
(§2) Clinical isolates of P. aeruginosa and S. aureus were obtained from the General University Hospital in Prague (Prague, Czech Republic). P. aeruginosa was resistant to ciprofloxacin, oxacillin, ticarcillin, colistin, gentamicin, and imipenem. S. aureus was resistant to ciprofloxacin, gentamicin, erythromycin, chloramphenicol, clindamycin, oxacillin, cefotaxime, and vancomycin. Bacteria were cultivated in Mueller–Hinton broth (MH broth, Merck). The susceptibility of the bacteria was evaluated by the minimum inhibitory concentrations (MIC). The MIC of derivatives in the presence of the antibiotic cut-off concentration was determined according to ISO 20776-1: 2020. The antibiotic cut-off concentration was chosen according to the European Committee on Antimicrobial Susceptibility Testing (EUCAST, Clinical breakpoints—bacteria (ver. 11.0), 1 January 2021). The 40 µM concentration of the derivatives was chosen as the highest concentration for the tests. Cell viability was determined by measuring absorbance (A590 nm) after 24 h incubation at 37 °C, 150 rpm.

[3] = tested on: multidrug-resistant S. aureus; assay: as above; assay type: cell-based, Staphylococcus aureus; settings: for Effect on viability in combination with chloramphenicol: chloramphenicol 8 mg/L; for Effect on viability in combination with chloramphenicol / Effect on viability in combination with gentamicin: 24 h; for Effect on viability in combination with gentamicin: gentamicin 1 mg/L; for Gentamicin-resistant phenotype of S. aureus (result in words): gentamicin breakpoint concentration
Protocol: as §1, §2

[4] = tested on: murine macrophages (RAW 264.7); assay: Cell viability in the nitric oxide assay (resazurin assay); assay type: cell-based; settings: RAW 264.7, nitric oxide assay
Protocol: The anti-inflammatory activity of the tested flavonolignans was determined as the ability to reduce nitric oxide production by murine macrophages (RAW 264.7) stimulated by bacterial lipopolysaccharides, as previously described. […] For the experiment, 1 × 10^6 cells/mL was seeded into the 96-well plate (100 µL/well). […] After 24 h, the medium was mixed with Griess reagent (0.04 g/mL), prepared freshly in deionized water at the ratio of 1:1. The absorbance was measured after 15 min at 540 nm by the SpectraMax i3x microplate reader. Cell viability was determined by resazurin assay.

COc1cc([C@H]2Oc3cc([C@H]4Oc5cc(O)cc(O)c5C(=O)[C@@H]4O)ccc3O[C@@H]2CO)ccc1O [3a, silybin A, reference compound]
IC50 [1]: 77 µM | Effect on viability in combination with colistin [2]: - | Effect on viability in combination with imipenem [2]: - | Effect on viability in combination with chloramphenicol ([3]; flavonoid 40 µM): - | Effect on viability in combination with gentamicin ([3]; flavonoid 40 µM): -

COc1cc([C@@H]2Oc3cc([C@H]4Oc5cc(O)cc(O)c5C(=O)[C@@H]4O)ccc3O[C@H]2CO)ccc1O [3b, silybin B, reference compound]
IC50 [1]: 105 µM | Effect on viability in combination with colistin [2]: - | Effect on viability in combination with imipenem [2]: - | Effect on viability in combination with chloramphenicol ([3]; flavonoid 40 µM): - | Effect on viability in combination with gentamicin ([3]; flavonoid 40 µM): -

O=C1c2c(O)cc(O)cc2OC(c2ccc(O)c(O)c2)C1O (centres unmarked) [compound 1, taxifolin, reference compound]
Effect on viability in combination with colistin [2]: - | Effect on viability in combination with imipenem [2]: - | Effect on viability in combination with chloramphenicol ([3]; flavonoid 40 µM): -

O=c1c(O)c(-c2ccc(O)c(O)c2)oc2cc(O)cc(O)c12 [compound 2, quercetin, reference compound]
Effect on viability in combination with colistin [2]: - | Effect on viability in combination with imipenem [2]: - | Effect on viability in combination with chloramphenicol ([3]; flavonoid 40 µM): - | Effect on viability in combination with gentamicin ([3]; flavonoid 40 µM): -

COc1cc(C2Oc3cc(-c4oc5cc(O)cc(O)c5c(=O)c4O)ccc3OC2CO)ccc1O (centres unmarked) [compound 4, 2,3-dehydrosilybin AB, reference compound]
Effect on viability in combination with colistin [2]: - | Effect on viability in combination with imipenem [2]: - | Effect on viability in combination with chloramphenicol ([3]; flavonoid 40 µM): - | Effect on viability in combination with gentamicin ([3]; flavonoid 5 µM): reversion of resistance [5 µM] | Gentamicin-resistant phenotype of S. aureus (result in words) ([3]; compound 5 µM): reversed

COc1cc([C@@H]2Oc3c(O)cc([C@H]4Oc5cc(O)cc(O)c5C(=O)[C@@H]4O)cc3[C@H]2CO)ccc1O [compound 5, silychristin A, reference compound]
IC50 [1]: 73 µM | Effect on viability in combination with colistin [2]: - | Effect on viability in combination with imipenem [2]: - | Effect on viability in combination with chloramphenicol ([3]; flavonoid 40 µM): - | Effect on viability in combination with gentamicin ([3]; flavonoid 40 µM): -

COc1cc([C@@H]2Oc3c(O)cc(-c4oc5cc(O)cc(O)c5c(=O)c4O)cc3[C@H]2CO)ccc1O [compound 6, 2,3-dehydrosilychristin A, reference compound]
Effect on viability in combination with colistin [2]: - | Effect on viability in combination with imipenem [2]: - | Growth in combination with chloramphenicol ([3]; chloramphenicol breakpoint concentration, compound 40 µM as stated in the text): 69% | Effect on viability in combination with gentamicin ([3]; flavonoid 40 µM): -

O=C1c2c(cc(O)c(Br)c2O)O[C@H](c2ccc(O)c(O)c2)[C@H]1O [compound 7, 6-Bromotaxifolin]
Effect on viability in combination with colistin [2]: - | Effect on viability in combination with imipenem [2]: - | Effect on viability in combination with chloramphenicol ([3]; flavonoid 40 µM): -

O=C1c2c(O)c(Br)c(O)c(Br)c2O[C@H](c2ccc(O)c(O)c2)[C@H]1O [compound 8, 6,8-dibromotaxifolin]
Effect on viability in combination with colistin [2]: - | Effect on viability in combination with imipenem [2]: - | Effect on viability in combination with chloramphenicol ([3]; flavonoid 40 µM): -

O=c1c(O)c(-c2ccc(O)c(O)c2)oc2c(Br)c(O)cc(O)c12 [compound 9, 8-bromoquercetin]
Effect on viability in combination with colistin [2]: - | Effect on viability in combination with imipenem [2]: - | Effect on viability in combination with chloramphenicol ([3]; flavonoid 40 µM): - | Effect on viability in combination with gentamicin ([3]; flavonoid 40 µM): -

O=c1c(O)c(-c2ccc(O)c(O)c2)oc2c(Br)c(O)c(Br)c(O)c12 [compound 10, 6,8-dibromoquercetin]
Effect on viability in combination with colistin [2]: - | Effect on viability in combination with imipenem [2]: - | Effect on viability in combination with chloramphenicol ([3]; flavonoid 40 µM): - | Effect on viability in combination with gentamicin ([3]; flavonoid 40 µM): -

COc1cc([C@H]2Oc3cc([C@H]4Oc5cc(O)c(Br)c(O)c5C(=O)[C@@H]4O)ccc3O[C@@H]2CO)ccc1O [compound 11, 6-Bromosilybin A]
Effect on viability in combination with colistin [2]: - | Effect on viability in combination with imipenem [2]: - | Effect on viability in combination with chloramphenicol ([3]; flavonoid 40 µM): -

COc1cc([C@H]2Oc3cc([C@H]4Oc5c(Br)c(O)c(Br)c(O)c5C(=O)[C@@H]4O)ccc3O[C@@H]2CO)ccc1O [compound 12, 6,8-dibromosilybin A]
Effect on viability in combination with colistin [2]: - | Effect on viability in combination with imipenem [2]: - | Effect on viability in combination with chloramphenicol ([3]; flavonoid 40 µM): -

COc1cc([C@@H]2Oc3cc([C@H]4Oc5cc(O)c(Br)c(O)c5C(=O)[C@@H]4O)ccc3O[C@H]2CO)ccc1O [compound 13, 6-Bromosilybin B]
Effect on viability in combination with colistin [2]: - | Effect on viability in combination with imipenem [2]: - | Effect on viability in combination with chloramphenicol ([3]; flavonoid 40 µM): -

COc1cc([C@@H]2Oc3cc([C@H]4Oc5c(Br)c(O)c(Br)c(O)c5C(=O)[C@@H]4O)ccc3O[C@H]2CO)ccc1O [compound 14, 6,8-dibromosilybin B]
Effect on viability in combination with colistin [2]: - | Effect on viability in combination with imipenem [2]: - | Effect on viability in combination with chloramphenicol ([3]; flavonoid 40 µM): -

COc1cc(C2Oc3cc(-c4oc5c(Br)c(O)cc(O)c5c(=O)c4O)ccc3OC2CO)ccc1O (centres unmarked) [compound 16, 8-bromo-2,3-dehydrosilybin AB]
Effect on viability in combination with colistin [2]: reversion of resistance | Colistin-resistant phenotype of P. aeruginosa (result in words) ([2]; colistin breakpoint concentration): reversed the colistin-resistant phenotype in P. aeruginosa to a sensitive one | Effect on viability in combination with imipenem [2]: - | Effect on viability in combination with chloramphenicol ([3]; flavonoid 40 µM): - | Effect on viability in combination with gentamicin ([3]; flavonoid 40 µM): - | Concentration above which the cell viability decreased [4]: > 25 µM

COc1cc([C@@H]2Oc3c(O)cc(-c4oc5c(Br)c(O)cc(O)c5c(=O)c4O)cc3[C@H]2CO)ccc1O [compound 18, 8-Bromo-2,3-dehydrosilychristin A]
Effect on viability in combination with colistin [2]: - | Effect on viability in combination with imipenem [2]: - | Effect on viability in combination with chloramphenicol ([3]; flavonoid 40 µM): - | Effect on viability in combination with gentamicin ([3]; flavonoid 40 µM): -

COc1cc([C@H]2Oc3cc([C@H]4Oc5c(Br)c(O)c(Br)c(O)c5C(=O)[C@@H]4O)ccc3O[C@@H]2CO)cc(Br)c1O [compound 21, 6,8,21-tribromosilybin A]
Effect on viability in combination with colistin [2]: - | Effect on viability in combination with imipenem [2]: - | Effect on viability in combination with chloramphenicol ([3]; flavonoid 40 µM): - | Effect on viability in combination with gentamicin ([3]; flavonoid 40 µM): reversion of resistance | Gentamicin-resistant phenotype of S. aureus (result in words) ([3]; compound 40 µM): reversed the resistant phenotype to a sensitive one; also recorded: revert the resistant phenotype into a sensitive one

COc1cc([C@@H]2Oc3cc([C@H]4Oc5c(Br)c(O)c(Br)c(O)c5C(=O)[C@@H]4O)ccc3O[C@H]2CO)cc(Br)c1O [compound 22, 6,8,21-tribromosilybin B]
Effect on viability in combination with colistin [2]: - | Effect on viability in combination with imipenem [2]: - | Effect on viability in combination with chloramphenicol ([3]; flavonoid 40 µM): - | Effect on viability in combination with gentamicin ([3]; flavonoid 40 µM): reversion of resistance | Gentamicin-resistant phenotype of S. aureus (result in words) ([3]; compound 40 µM): reversed the resistant phenotype to a sensitive one; also recorded: revert the resistant phenotype into a sensitive one
